The values below come from publication PMC6821309, “Optimization of Insect Odorant Receptor Trafficking and Functional Expression Via Transient Transfection in HEK293 Cells” (Chemical Senses, 2019).

Test [1] deals with T1, Or47a/Orco heteromer (pDmelOR-R.E.hOr47a; mRho.V5.mER.hOr47a + hOrco) (Drosophila melanogaster, UniProt P81921).
T1 construct: N-terminal myc-tagged codon-optimized Orco, spliced chimeric intron; bidirectional vector, transient HEK293; with Odorant receptor coreceptor
T1 sequence (P81921 1-385): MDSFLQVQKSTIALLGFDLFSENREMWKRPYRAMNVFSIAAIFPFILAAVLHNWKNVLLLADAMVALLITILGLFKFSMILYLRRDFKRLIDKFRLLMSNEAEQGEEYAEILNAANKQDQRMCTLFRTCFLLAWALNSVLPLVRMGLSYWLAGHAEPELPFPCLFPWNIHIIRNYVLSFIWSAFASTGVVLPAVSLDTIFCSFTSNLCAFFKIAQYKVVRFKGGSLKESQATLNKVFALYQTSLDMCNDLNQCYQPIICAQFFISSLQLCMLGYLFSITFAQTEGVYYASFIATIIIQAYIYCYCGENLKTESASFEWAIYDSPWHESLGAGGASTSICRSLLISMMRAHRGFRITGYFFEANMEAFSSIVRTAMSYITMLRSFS
T1 sequence (Q9VNB5 1-486 partner): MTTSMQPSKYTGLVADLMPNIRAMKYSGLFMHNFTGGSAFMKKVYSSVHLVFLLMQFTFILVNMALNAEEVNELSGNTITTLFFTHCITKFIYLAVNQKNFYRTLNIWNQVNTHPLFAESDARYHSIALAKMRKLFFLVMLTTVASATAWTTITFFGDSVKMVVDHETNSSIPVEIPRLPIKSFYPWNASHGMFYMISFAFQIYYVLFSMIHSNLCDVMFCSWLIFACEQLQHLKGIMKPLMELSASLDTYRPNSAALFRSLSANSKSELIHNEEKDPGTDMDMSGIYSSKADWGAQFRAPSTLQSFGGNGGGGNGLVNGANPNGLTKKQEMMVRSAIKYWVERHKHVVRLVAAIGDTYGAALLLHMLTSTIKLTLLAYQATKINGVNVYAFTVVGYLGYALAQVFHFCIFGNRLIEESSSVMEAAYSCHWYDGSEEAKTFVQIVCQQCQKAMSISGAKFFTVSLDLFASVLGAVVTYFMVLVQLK
Description: Fura-2 calcium imaging, automated platform, response normalized to VUAA1. In kind it is cell-based. The settings on record: agonist; 1 mM CaCl2, pH 7.4; 3-parameter logistic fit; transient HEK293. The source says:
Fura-2 calcium imaging, automated platform, response normalized to VUAA1 on Or47a/Orco heteromer (pDmelOR-R.E.hOr47a; mRho.V5.mER.hOr47a + hOrco) | transfected with pDmelOR-R.E.hOr47a and stimulated with pentyl acetate (d)

Test [2] addresses T2, Or56a/Orco (pDmelOR-R.E.hOr56a; mRho.V5.mER.hOr56a + hOrco) (Drosophila melanogaster, UniProt Q9V8Y7).
T2 construct: human codon-optimized Or56a with N-terminal mRho.V5.mER tag; N-terminal myc-tagged codon-optimized Orco, spliced chimeric intron; bidirectional vector, transient HEK293; with Odorant receptor coreceptor
T2 sequence (Q9V8Y7 1-419): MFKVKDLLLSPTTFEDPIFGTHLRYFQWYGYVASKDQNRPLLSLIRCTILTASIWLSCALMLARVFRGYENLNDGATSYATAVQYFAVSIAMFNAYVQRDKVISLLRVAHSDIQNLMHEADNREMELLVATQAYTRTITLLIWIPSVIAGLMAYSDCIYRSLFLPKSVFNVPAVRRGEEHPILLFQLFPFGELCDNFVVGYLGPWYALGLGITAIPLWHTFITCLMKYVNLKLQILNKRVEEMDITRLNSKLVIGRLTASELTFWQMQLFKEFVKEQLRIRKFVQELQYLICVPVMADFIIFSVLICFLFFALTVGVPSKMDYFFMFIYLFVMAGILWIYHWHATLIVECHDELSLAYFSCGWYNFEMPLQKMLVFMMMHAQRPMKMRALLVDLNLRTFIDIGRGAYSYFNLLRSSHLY
T2 sequence (Q9VNB5 1-486 partner): T1 sequence (Q9VNB5 1-486 partner)
The test is described as above. In kind it is cell-based. The settings on record: agonist; 1 mM CaCl2, pH 7.4; 3-parameter logistic fit; transient HEK293. The source says:
Fura-2 calcium imaging, automated platform, response normalized to VUAA1 on Or56a/Orco (pDmelOR-R.E.hOr56a; mRho.V5.mER.hOr56a + hOrco) | or with pDmelOR-R.E.hOr56a and stimulated with geosmin (e)

For `CCCCCOC(C)=O` [pentyl acetate], in test [1], the EC50 is on record as 2.45·10^–5 (1.83 × 10^–5; 3.29 × 10^–5) M.

Turning to `CC1CCCC2(C)CCCCC12O` (racemic) [geosmin], the EC50 in test [2] was 7.19·10^–7 (3.97 × 10^–7; 1.30 × 10^–6) M.
